Test systems include DU-145 prostate; CCRF-CEM leukemia; 786-0 renal; RPMI-8226 leukemia; PC-3 prostate; HCT-15 colon; HCT-116 colon; SF-539 CNS; SNB-75 CNS; SNB-19 CNS.
Common to all, as to experiment: DTP human tumour cell line panel, 48 h

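Results reflect a 48-hour exposure of cells in 96-well plates to compound at five concentrations. GI50 = concentration required for 50% inhibition of growth. At the TGI there is no net growth.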 Where only a bound is given, the exact number is not on record here.

For the compound `CC1NC(=O)C2=C1C(=O)NC(=O)C2` (centres undefined), the GI50 in the assay on DU-145 prostate, in the assay with CCRF-CEM leukemia, with 786-0 renal, in the assay on RPMI-8226 leukemia, in the assay on PC-3 prostate and with HCT-15 colon was more than 100 µM each time. Moreover, the GI50 in the assay on HCT-116 colon and in the assay with SF-539 CNS was more than 100 µM throughout. The TGI with DU-145 prostate, with CCRF-CEM leukemia, in the assay with 786-0 renal, with RPMI-8226 leukemia, in the assay with PC-3 prostate and with HCT-15 colon was more than 100 µM throughout. Also, the TGI in the assay on HCT-116 colon and with SF-539 CNS was more than 100 µM throughout.
`Cc1cc(-c2cc(O)ccc2Cl)cc2nnc(Nc3ccc(OCCN4CCCC4)cc3)nc12`: the GI50 in the assay on SNB-75 CNS is 0.824 µM; with DU-145 prostate, 0.206 µM; in the assay on CCRF-CEM leukemia, 0.242 µM; in the assay with 786-0 renal, 0.186 µM; with RPMI-8226 leukemia, 0.207 µM; with PC-3 prostate, 0.424 µM. The GI50 with SNB-19 CNS was 0.659 µM; in the assay with HCT-15 colon, 0.183 µM; in the assay on HCT-116 colon, 0.18 µM; in the assay with SF-539 CNS, 1.04 µM. Further, the TGI in the assay on SNB-75 CNS was found to be 2.22 µM; with DU-145 prostate, 0.419 µM; with CCRF-CEM leukemia, 0.634 µM; in the assay with 786-0 renal it was 0.343 µM; in the assay with RPMI-8226 leukemia, 0.442 µM; in the assay with PC-3 prostate it was 1.54 µM. The TGI came out at 1.23 µM with SNB-19 CNS, 0.36 µM with HCT-15 colon, 0.341 µM in the assay with HCT-116 colon and 2.32 µM in the assay on SF-539 CNS.
In the case of `COc1ccc(/C=C2/SC(Nc3nc(-c4nc(NC5=NC(=O)/C(=C\c6ccc(OC)cc6)S5)sc4C)c(C)s3)=NC2=O)cc1`, the GI50 was 2.43 µM in the assay with DU-145 prostate; 1.68 µM with CCRF-CEM leukemia; 1.07 µM in the assay on 786-0 renal; 0.572 µM in the assay on RPMI-8226 leukemia; 0.787 µM with PC-3 prostate; 5.81 µM with SNB-19 CNS. The 50% growth inhibitory concentration (GI50) with HCT-15 colon was 0.397 µM; in the assay with HCT-116 colon, 1.2 µM; in the assay with SF-539 CNS it was 1.36 µM. Further, the TGI in the assay with DU-145 prostate was more than 19.7 µM; in the assay on CCRF-CEM leukemia, more than 50 µM; in the assay on 786-0 renal it was 4.18 µM; with RPMI-8226 leukemia it was 3.21 µM; in the assay with PC-3 prostate, 9.95 µM; with SNB-19 CNS, more than 50 µM. For the same compound, the figures for the TGI with HCT-15 colon, with HCT-116 colon and in the assay on SF-539 CNS were 7.82 µM, 9.78 µM and 3.95 µM, respectively.
Take `CCCCCCCCCCCCOC1C(CNC(=O)C2OC3OC(C)(C)OC3C2NC(=O)CN2CCN(c3ccc(OC)cc3)CC2)OC2OC(C)(C)OC21` (centres undefined): the GI50 in the assay on SNB-75 CNS is 4.46 µM; in the assay with DU-145 prostate, 4.56 µM; with CCRF-CEM leukemia, 4.1 µM; in the assay on 786-0 renal, 11.8 µM; with RPMI-8226 leukemia it was 2.13 µM; in the assay with PC-3 prostate it was 2.82 µM. For the same compound, the GI50 is 5.3 µM with SNB-19 CNS, 3.53 µM with HCT-15 colon, 3.26 µM in the assay on HCT-116 colon and 6.09 µM with SF-539 CNS. Moreover, the TGI with SNB-75 CNS turned out to be 17.4 µM; with DU-145 prostate, 15.6 µM; with CCRF-CEM leukemia, 16.9 µM; in the assay on 786-0 renal, 24 µM; in the assay with RPMI-8226 leukemia, 4.73 µM; in the assay on PC-3 prostate it was 9.79 µM. Moreover, the TGI was determined as 17 µM in the assay with SNB-19 CNS, 11.3 µM with HCT-15 colon, 18.5 µM with HCT-116 colon and 22 µM in the assay with SF-539 CNS.
Turning to `O=C(CCN1CCCCC1)N1CCc2c([nH]c3ccccc23)C1c1cccnc1` (centres undefined), the TGI with SNB-75 CNS was more than 92.1 µM; with DU-145 prostate, more than 100 µM; with CCRF-CEM leukemia it was 99 µM; with 786-0 renal, 82.9 µM; in the assay on RPMI-8226 leukemia, more than 100 µM; with PC-3 prostate it was more than 100 µM. Further, the TGI in the assay with SNB-19 CNS was more than 100 µM; in the assay on HCT-15 colon, more than 100 µM; in the assay with HCT-116 colon, more than 100 µM; in the assay with SF-539 CNS it was more than 85.7 µM.
As for `C/C(=C(\c1ccc(OCCN2CCCCCC2)cc1)c1ccc(OC(=O)c2ccccc2)cc1)c1ccc(Cl)cc1`, the GI50 was 5.41 µM in the assay with DU-145 prostate; 4.2 µM with CCRF-CEM leukemia; 3.58 µM in the assay on 786-0 renal; 3.03 µM in the assay on RPMI-8226 leukemia; 2.36 µM in the assay on PC-3 prostate; 6.61 µM in the assay on SNB-19 CNS. Also, the GI50 with HCT-15 colon was 1.4 µM; in the assay on HCT-116 colon, 1.62 µM; with SF-539 CNS, 3.79 µM. The TGI in the assay on DU-145 prostate was 11.3 µM; in the assay on CCRF-CEM leukemia it was 16.4 µM; in the assay with 786-0 renal, 7.73 µM; in the assay on RPMI-8226 leukemia, 10.2 µM; with PC-3 prostate it was 8.45 µM; in the assay with SNB-19 CNS it was 18.5 µM. Also, the values for the TGI in the assay on HCT-15 colon, in the assay with HCT-116 colon and in the assay with SF-539 CNS were 5.99 µM, 6.05 µM and 8.31 µM, respectively.
As for `CO[C@H]1CC(O[C@@H]2/C(C)=C/C[C@@H]3C[C@@H](C[C@]4(CC[C@H](C)[C@@H](C5CCCCC5)O4)O3)OC(=O)[C@@H]3C=C(C)/C(=N/O)[C@H]4OC/C(=C\C=C\[C@@H]2C)[C@]43O)O[C@@H](C)C1O` (some centres undefined), the GI50 in the assay on SNB-75 CNS is 0.867 µM; with DU-145 prostate, 0.833 µM; in the assay on 786-0 renal it was 1.14 µM; with RPMI-8226 leukemia, 0.944 µM; in the assay with PC-3 prostate it was 0.704 µM; in the assay with SNB-19 CNS it was 1.66 µM. The GI50 with HCT-15 colon is 0.873 µM; in the assay with HCT-116 colon, 0.704 µM; in the assay with SF-539 CNS, 0.948 µM. Moreover, the TGI is 2.57 µM in the assay on SNB-75 CNS; 1.62 µM with DU-145 prostate; 2.62 µM in the assay with 786-0 renal; 2.72 µM in the assay on RPMI-8226 leukemia; 1.84 µM in the assay on PC-3 prostate; 9.01 µM in the assay with SNB-19 CNS. Further, the results for the TGI in the assay with HCT-15 colon, with HCT-116 colon and in the assay with SF-539 CNS were 1.95 µM, 1.4 µM and 1.93 µM, respectively.
In the case of `Cn1c2c(c3ccccc31)CCN1C(=O)CCC21` (centres undefined), the TGI with SNB-75 CNS, in the assay on DU-145 prostate, with CCRF-CEM leukemia, in the assay on 786-0 renal, with RPMI-8226 leukemia and in the assay on PC-3 prostate was more than 10 µM in each case. Further, the concentration for total growth inhibition (TGI) in the assay on SNB-19 CNS, in the assay with HCT-15 colon and in the assay with SF-539 CNS was more than 10 µM throughout.

The values above are taken from PubChem BioAssay (NCI).
